Experimental data from patent US6737383B1, “Herbicidal oxadiazolidines” (priority 1999, dated 2004).

Assays:
velvetleaf = experiment: Test B pre/postemergence velvetleaf; format: in vivo, Abutilon theophrasti
Summary of the method: (§1)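 Response is a visual 0-to-10 score relative to untreated plants, where 0 means no effect and 10 means complete control, taken twelve to sixteen days after application. Treatments went onto soil at planting and onto foliage of 1- to 4-leaf plants, using a surfactant-containing non-phytotoxic solvent.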

crabgrass = experiment: Test B pre/postemergence crabgrass; format: in vivo, Digitaria sanguinalis
Summary of the method: as §1

rice = experiment: Test B flood test rice; format: in vivo, Oryza sativa
Summary of the method: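 Flood test on plants grown to the 2-leaf stage; treated plants kept in greenhouse twelve to sixteen days, then visually rated against controls on a 0 (no effect) to 10 (complete control) scale.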

corn = experiment: Test B pre/postemergence corn; format: in vivo, Zea mays
Summary of the method: as §1

[1] = Postemergence, Rate 62 g/ha, scale 0 to 10, 0 is no effect, 10 is complete control
[2] = Postemergence, Rate 125 g/ha, scale of 0 to 10 where 0 is no effect and 10 is complete control
[3] = Preemergence, Rate 62 g/ha, scale of 0 to 10 where 0 is no effect and 10 is complete control
[4] = Preemergence, Rate 125 g/ha, scale of 0 to 10 where 0 is no effect and 10 is complete control
[5] = Preemergence, Rate 250 g/ha, scale 0 to 10 (0 no effect, 10 complete control)
[6] = Preemergence, Rate 500 g/ha, scale of 0 to 10 where 0 is no effect and 10 is complete control
[7] = Rate 500 g/ha, Postemergence, scale 0 to 10, 0 is no effect, 10 is complete control
[8] = Postemergence, Rate 250 g/ha, scale of 0 to 10, 0 is no effect, 10 is complete control
[9] = Postemergence, Rate 250 g/ha, scale 0 to 10, 0 no effect, 10 complete control
[10] = Preemergence, Rate 62 g/ha, scale 0 to 10, 0 is no effect, 10 is complete control
[11] = Preemergence, Rate 125 g/ha, scale 0 to 10 (0 no effect, 10 complete control)
[12] = Preemergence, Rate 250 g/ha, scale of 0 to 10 where 0 is no effect and 10 is complete control
[13] = Preemergence, Rate 500 g/ha, scale 0 (no effect) to 10 (complete control)
[14] = Rate 125 g/ha, Postemergence, scale 0 to 10, 0 no effect, 10 complete control
[15] = Rate 500 g/ha, Postemergence, 0 to 10 scale (0 no effect, 10 complete control)
[16] = Rate 125 g/ha, Postemergence section (flood test species), scale 0 to 10, 0 no effect, 10 complete control
[17] = Rate 500 g/ha, Postemergence section of Table B, 0 to 10 scale (0 no effect, 10 complete control)
[18] = flood test, listed under Postemergence, Rate 250 g/ha, scale 0 to 10, 0 no effect, 10 complete control
[19] = Preemergence, Rate 31 g/ha, visual rating, scale 0 to 10 (0 no effect, 10 complete control)
[20] = Rate 31 g/ha, Postemergence, scale 0 to 10
[21] = Rate 500 g/ha, Postemergence, scale 0 to 10, 0 no effect, 10 complete control
[22] = Rate 500 g/ha, listed under Postemergence (flood test species), scale 0 to 10, 0 no effect, 10 complete control

C#CC(C)n1c(=O)on(C(=O)N(c2ccc(Cl)cc2)C(C)C)c1=O (racemic) [Compound 658]
Plant response rating, Velvetleaf (velvetleaf; [1]): 0 | Velvetleaf plant response rating (velvetleaf; [2]): 0 | Velvetleaf plant response rating (velvetleaf; [3]): 0 | Velvetleaf plant response rating (velvetleaf; [4]): 0 | Plant response rating, Velvetleaf (velvetleaf; [5]): 3 | Plant response rating, Velvetleaf (velvetleaf; [6]): 5 | Velvetleaf plant response rating (velvetleaf; [7]): 6 | Plant response rating, Crabgrass (crabgrass; [1]): 0 | Crabgrass plant response rating (crabgrass; [2]): 2 | Crabgrass plant response rating (crabgrass; [8]): 2 | Crabgrass plant response rating (crabgrass; [3]): 3 | Crabgrass plant response rating (crabgrass; [4]): 7 | Plant response rating, Crabgrass (crabgrass; [5]): 8 | Plant response rating, Crabgrass (crabgrass; [6]): 9 | Plant response rating, Rice (0 to 10 scale, 0 is no effect, 10 is complete control) (rice; Rate 62 g/ha, flood test species, Pre-emergence, visual evaluation after twelve to sixteen days): 0 | Rice plant response rating (0 to 10 scale, 0 is no effect, 10 is complete control) (rice; Rate 125 g/ha, under heading Pre-emergence, flood test species, visual evaluation after twelve to sixteen days): 0 | Rice plant response rating (rice; Rate 250 g/ha, Pre-emergence (flood test species), scale 0 to 10, 0 is no effect, 10 is complete control): 0 | Rice plant response rating (rice; Rate 500 g/ha, Pre-emergence section of Table B, 0 to 10 scale (0 no effect, 10 complete control)): 0 | Plant response rating, Corn (corn; [1]): 0 | Corn plant response rating (corn; [2]): 0 | Corn plant response rating (corn; [8]): 0 | Corn plant response rating (corn; [3]): 0 | Corn plant response rating (corn; [4]): 0 | Plant response rating, Corn (corn; [5]): 2 | Plant response rating, Corn (corn; [6]): 2 | Corn plant response rating (corn; [7]): 0

Cc1c(Cl)cccc1-n1c(=O)on(C(=O)N(c2ccc(F)cc2)C(C)C)c1=O [Compound 21]
Velvetleaf plant response rating (velvetleaf; [1]): 0 | Velvetleaf plant response rating (velvetleaf; [9]): 0 | Plant response rating, Velvetleaf (velvetleaf; [10]): 0 | Plant response rating, Velvetleaf (velvetleaf; [11]): 0 | Plant response rating, Velvetleaf (velvetleaf; [12]): 0 | Velvetleaf plant response rating (velvetleaf; [13]): 0 | Velvetleaf plant response rating (velvetleaf; [14]): 0 | Crabgrass plant response rating (crabgrass; [1]): 0 | Crabgrass plant response rating (crabgrass; [9]): 0 | Plant response rating, Crabgrass (crabgrass; [10]): 4 | Plant response rating, Crabgrass (crabgrass; [11]): 7 | Plant response rating, Crabgrass (crabgrass; [12]): 7 | Crabgrass plant response rating (crabgrass; [13]): 7 | Crabgrass plant response rating (crabgrass; [14]): 0 | Crabgrass plant response rating (crabgrass; [15]): 2 | Rice plant response rating (rice; [1]): 0 | Rice plant response rating (rice; [16]): 0 | Rice plant response rating (rice; [17]): 0 | Rice plant response rating (rice; [18]): 0 | Corn plant response rating (corn; [1]): 0 | Corn plant response rating (corn; [9]): 0 | Plant response rating, Corn (corn; [10]): 0 | Plant response rating, Corn (corn; [11]): 0 | Plant response rating, Corn (corn; [12]): 0 | Corn plant response rating (corn; [13]): 0 | Corn plant response rating (corn; [14]): 0 | Corn plant response rating (corn; [15]): 3

CCN(C(=O)n1oc(=O)n(-c2c(C)cccc2C)c1=O)C1CCCCC1 [Compound 27]
Velvetleaf plant response rating (velvetleaf; [1]): 0 | Velvetleaf plant response rating (velvetleaf; [9]): 0 | Velvetleaf plant response rating (velvetleaf; [19]): 0 | Plant response rating, Velvetleaf (velvetleaf; [10]): 0 | Plant response rating, Velvetleaf (velvetleaf; [11]): 0 | Plant response rating, Velvetleaf (velvetleaf; [12]): 0 | Velvetleaf plant response rating (velvetleaf; [14]): 0 | Crabgrass plant response rating (crabgrass; [1]): 0 | Crabgrass plant response rating (crabgrass; [9]): 0 | Crabgrass plant response rating (crabgrass; [19]): 0 | Plant response rating, Crabgrass (crabgrass; [10]): 0 | Plant response rating, Crabgrass (crabgrass; [11]): 0 | Plant response rating, Crabgrass (crabgrass; [12]): 0 | Crabgrass plant response rating (crabgrass; [20]): 0 | Crabgrass plant response rating (crabgrass; [14]): 0 | Rice plant response rating (rice; [1]): 0 | Rice plant response rating (rice; [16]): 0 | Rice plant response rating (rice; [17]): 2 | Rice plant response rating (rice; [18]): 0 | Corn plant response rating (corn; [1]): 0 | Corn plant response rating (corn; [9]): 0 | Corn plant response rating (corn; [19]): 0 | Plant response rating, Corn (corn; [10]): 0 | Plant response rating, Corn (corn; [11]): 0 | Plant response rating, Corn (corn; [12]): 0 | Corn plant response rating (corn; [20]): 0 | Corn plant response rating (corn; [14]): 0

Cc1ccccc1-n1c(=O)on(C(=O)N(c2ccc([N+](=O)[O-])cc2)C(C)C)c1=O [Compound 44]
Velvetleaf plant response rating (velvetleaf; [1]): 0 | Velvetleaf plant response rating (velvetleaf; [9]): 0 | Plant response rating, Velvetleaf (velvetleaf; [10]): 0 | Plant response rating, Velvetleaf (velvetleaf; [11]): 0 | Plant response rating, Velvetleaf (velvetleaf; [12]): 0 | Velvetleaf plant response rating (velvetleaf; [13]): 0 | Velvetleaf plant response rating (velvetleaf; [14]): 0 | Crabgrass plant response rating (crabgrass; [1]): 0 | Crabgrass plant response rating (crabgrass; [9]): 0 | Plant response rating, Crabgrass (crabgrass; [10]): 0 | Plant response rating, Crabgrass (crabgrass; [11]): 0 | Plant response rating, Crabgrass (crabgrass; [12]): 0 | Crabgrass plant response rating (crabgrass; [13]): 2 | Crabgrass plant response rating (crabgrass; [14]): 0 | Crabgrass plant response rating (crabgrass; [15]): 0 | Rice plant response rating (rice; [1]): 0 | Rice plant response rating (rice; [16]): 0 | Rice plant response rating (rice; [17]): 0 | Rice plant response rating (rice; [18]): 0 | Corn plant response rating (corn; [1]): 0 | Corn plant response rating (corn; [9]): 0 | Plant response rating, Corn (corn; [10]): 0 | Plant response rating, Corn (corn; [11]): 0 | Plant response rating, Corn (corn; [12]): 0 | Corn plant response rating (corn; [13]): 0 | Corn plant response rating (corn; [14]): 0 | Corn plant response rating (corn; [15]): 0

Cc1cccc(C)c1-n1c(=O)on(C(=O)N(c2ccc(Cl)cc2)C(C)C)c1=O [Compound 47]
Velvetleaf plant response rating (velvetleaf; [1]): 0 | Velvetleaf plant response rating (velvetleaf; [9]): 0 | Plant response rating, Velvetleaf (velvetleaf; [10]): 0 | Plant response rating, Velvetleaf (velvetleaf; [11]): 0 | Plant response rating, Velvetleaf (velvetleaf; [12]): 0 | Velvetleaf plant response rating (velvetleaf; [13]): 0 | Velvetleaf plant response rating (velvetleaf; [14]): 0 | Velvetleaf plant response rating (velvetleaf; [21]): 0 | Crabgrass plant response rating (crabgrass; [1]): 0 | Crabgrass plant response rating (crabgrass; [9]): 0 | Plant response rating, Crabgrass (crabgrass; [10]): 0 | Plant response rating, Crabgrass (crabgrass; [11]): 2 | Plant response rating, Crabgrass (crabgrass; [12]): 2 | Crabgrass plant response rating (crabgrass; [13]): 5 | Crabgrass plant response rating (crabgrass; [14]): 0 | Crabgrass plant response rating (crabgrass; [21]): 2 | Rice plant response rating (rice; Rate 125 g/ha, Pre-emergence, flood test species, scale 0 to 10 where 0 is no effect and 10 is complete control): 0 | Rice plant response rating (rice; Rate 250 g/ha, headed Pre-emergence (flood test species), scale 0 to 10 (0 no effect, 10 complete control)): 0 | Plant response rating, Rice (rice; Rate 500 g/ha, headed Pre-emergence (flood test species), scale 0 to 10 (0 no effect, 10 complete control)): 0 | Rice plant response rating (rice; Rate 1000 g/ha, Pre-emergence (as headed), scale 0 to 10): 0 | Rice plant response rating (rice; Rate 2000 g/ha, Pre-emergence (as headed), scale 0 to 10): 0 | Corn plant response rating (corn; [1]): 0 | Corn plant response rating (corn; [9]): 0 | Plant response rating, Corn (corn; [10]): 0 | Plant response rating, Corn (corn; [11]): 0 | Plant response rating, Corn (corn; [12]): 0 | Corn plant response rating (corn; [13]): 0 | Corn plant response rating (corn; [14]): 0 | Corn plant response rating (corn; [21]): 0

CCc1cccc(C)c1-n1c(=O)on(C(=O)N(c2ccc(F)cc2)C(C)C)c1=O [Compound 52]
Velvetleaf plant response rating (velvetleaf; [1]): 0 | Velvetleaf plant response rating (velvetleaf; [9]): 0 | Plant response rating, Velvetleaf (velvetleaf; [10]): 0 | Plant response rating, Velvetleaf (velvetleaf; [11]): 0 | Plant response rating, Velvetleaf (velvetleaf; [12]): 0 | Velvetleaf plant response rating (velvetleaf; [13]): 0 | Velvetleaf plant response rating (velvetleaf; [14]): 0 | Velvetleaf plant response rating (velvetleaf; [21]): 0 | Crabgrass plant response rating (crabgrass; [1]): 1 | Crabgrass plant response rating (crabgrass; [9]): 5 | Plant response rating, Crabgrass (crabgrass; [10]): 0 | Plant response rating, Crabgrass (crabgrass; [11]): 1 | Plant response rating, Crabgrass (crabgrass; [12]): 6 | Crabgrass plant response rating (crabgrass; [13]): 10 | Crabgrass plant response rating (crabgrass; [14]): 1 | Crabgrass plant response rating (crabgrass; [21]): 6 | Rice plant response rating (rice; [1]): 0 | Rice plant response rating (rice; [16]): 0 | Rice plant response rating (rice; [22]): 0 | Rice plant response rating (rice; [18]): 0 | Corn plant response rating (corn; [1]): 0 | Corn plant response rating (corn; [9]): 3 | Plant response rating, Corn (corn; [10]): 0 | Plant response rating, Corn (corn; [11]): 0 | Plant response rating, Corn (corn; [12]): 0 | Corn plant response rating (corn; [14]): 0 | Corn plant response rating (corn; [21]): 4

Cc1cccc(Cl)c1-n1c(=O)on(C(=O)N(c2ccc(F)cc2)C(C)C)c1=O [Compound 53]
Velvetleaf plant response rating (velvetleaf; [1]): 0 | Velvetleaf plant response rating (velvetleaf; [9]): 1 | Plant response rating, Velvetleaf (velvetleaf; [10]): 0 | Plant response rating, Velvetleaf (velvetleaf; [11]): 0 | Plant response rating, Velvetleaf (velvetleaf; [12]): 0 | Velvetleaf plant response rating (velvetleaf; [13]): 0 | Velvetleaf plant response rating (velvetleaf; [14]): 0 | Velvetleaf plant response rating (velvetleaf; [21]): 1 | Crabgrass plant response rating (crabgrass; [1]): 1 | Crabgrass plant response rating (crabgrass; [9]): 6 | Plant response rating, Crabgrass (crabgrass; [10]): 3 | Plant response rating, Crabgrass (crabgrass; [11]): 5 | Plant response rating, Crabgrass (crabgrass; [12]): 7 | Crabgrass plant response rating (crabgrass; [13]): 10 | Crabgrass plant response rating (crabgrass; [14]): 4 | Crabgrass plant response rating (crabgrass; [21]): 10 | Rice plant response rating (rice; [1]): 0 | Rice plant response rating (rice; [16]): 0 | Rice plant response rating (rice; [22]): 0 | Rice plant response rating (rice; [18]): 0 | Corn plant response rating (corn; [1]): 0 | Corn plant response rating (corn; [9]): 0 | Plant response rating, Corn (corn; [10]): 0 | Plant response rating, Corn (corn; [11]): 0 | Plant response rating, Corn (corn; [12]): 0 | Corn plant response rating (corn; [14]): 0 | Corn plant response rating (corn; [21]): 0
